Substitutions are numbered along the chain they refer to. Where two headings read alike, the source gives them in different places.
Tests used:
Assay in all cases: [3H]GABA uptake assay, transient expression in tsA201 cells
Format in all cases: cell-based
BGT1 E52A + Q299L = target: T1, BGT1 E52A + Q299L (Homo sapiens, UniProt P48065, E52A/Q299L); details: for IC50: BGT1 E52A + Q299L, tsA201 cells (2: only n = 2)
T1 construct: expressed in transfected cells; host or cells: tsA201 (transformed HEK293), transient
T1 sequence (P48065 1-614 E52A/Q299L): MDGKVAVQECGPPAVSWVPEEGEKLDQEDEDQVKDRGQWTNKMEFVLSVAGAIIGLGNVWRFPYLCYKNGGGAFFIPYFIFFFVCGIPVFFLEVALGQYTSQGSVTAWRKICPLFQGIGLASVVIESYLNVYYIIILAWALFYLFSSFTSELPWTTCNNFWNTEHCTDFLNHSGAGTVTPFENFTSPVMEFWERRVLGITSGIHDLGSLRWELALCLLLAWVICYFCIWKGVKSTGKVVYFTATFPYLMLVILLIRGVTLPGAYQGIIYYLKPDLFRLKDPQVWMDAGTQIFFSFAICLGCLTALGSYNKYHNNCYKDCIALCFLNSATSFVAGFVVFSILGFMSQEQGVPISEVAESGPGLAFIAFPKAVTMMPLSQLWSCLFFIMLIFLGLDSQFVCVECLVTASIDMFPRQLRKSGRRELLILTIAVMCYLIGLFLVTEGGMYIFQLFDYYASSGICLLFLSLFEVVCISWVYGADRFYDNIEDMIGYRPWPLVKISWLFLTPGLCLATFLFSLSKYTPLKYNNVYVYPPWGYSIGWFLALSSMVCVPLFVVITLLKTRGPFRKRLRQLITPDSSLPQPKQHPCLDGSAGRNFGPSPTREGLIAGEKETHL
Description: (§1) The residue Q299 in human BGT1 corresponds to leucine in all other GATs (human, rat, mouse), while E52 corresponds to tyrosine in GAT1 (human, rat, mouse) but is conserved among GAT2, GAT3 and BGT1 (human, rat, mouse) (Figure 6A) ([Kickinger et al., 2019]).
(§2) The tsA201 cell line (a transformed HEK293 cell line), the Flp-In CHO cell lines stably expressing human (h) GATs and the HEK293 cell line stably expressing human α1β2γ2 GABAA receptors have been described previously and were cultured accordingly ([Al-Khawaja et al., 2014]; [Falk-Petersen et al., 2020]). The tsA201 cell line used for transient expression of hGATs was transfected with DNA constructs (8 μg per 10 cm plate) using 40 μL PolyFect transfection reagent according to the manufacturer’s protocol (Qiagen).
(§3) Briefly, cells were seeded in white 96-well plates (White Opaque Tissue Culture (TC) plated 96-well Microplate) pre-coated with PDL. Medium was removed on the following day and cells washed with 100 µL/well assay buffer (HBSS supplemented with 20 mM HEPES, 1 mM CaCl2 and 1 mM MgCl2, pH 7.4). […] The cells were washed 3 times with 100 µL/well ice-cold assay buffer, 150 µL/well MicroScint™20 was subsequently added before the plate was shaken for at least 1 h. The plate was counted in a Packard TopCounter microplate scintillation counter (PerkinElmer) for 3 min per well. […] Data presented is the pooled data of at least three independent experiments with three technical replicates if not stated otherwise in figure legends. Concentration–response curves were fitted by non-linear regression to the sigmoidal concentration-response model with GraphPad Prism (version 9.0.0, GraphPad Software, San Diego, CA, United States) as described ([Lie et al., 2020]).

BGT1 E52A = target: T2, BGT1 E52A (Homo sapiens, UniProt P48065, E52A); details: for Increase in activity compared to wildtype: BGT1 E52A vs BGT1 wt; for IC50: BGT1 E52A
T2 construct: expressed in transfected cells; host or cells: tsA201 (transformed HEK293), transient
T2 sequence (P48065 1-614 E52A): T1 sequence (P48065 1-614 E52A/Q299L) with L299Q
Description: as §1, §2, §3

BGT1 E52Y = target: T3, BGT1 E52Y (Homo sapiens, UniProt P48065, E52Y); details: for IC50: BGT1 E52Y, tsA201 cells
T3 construct: expressed in transfected cells; host or cells: tsA201 (transformed HEK293), transient
T3 sequence (P48065 1-614 E52Y): T1 sequence (P48065 1-614 E52A/Q299L) with A52Y, L299Q
Description: as §1, §2, §3

| IC50 (BGT1 E52A + Q299L; read-out: IC50) [µM] | IC50 (BGT1 E52A + Q299L; read-out: pIC50 ± S.E.M. (converted)) [µM] | Increase in activity compared to wildtype (BGT1 E52A) [times] | IC50 (BGT1 E52A; tsA201 cells) [nM] | IC50 (BGT1 E52Y) [µM] | Decrease in inhibitory activity compared to wildtype (BGT1 E52A + Q299L; BGT1 Q299L + E52A vs BGT1 wt) [times] | IC50 (BGT1 E52A) [nM] | Decrease in inhibitory activity compared to wildtype (BGT1 E52Y; BGT1 E52Y vs BGT1 wt) [times] | Structure (SMILES) |
| --- | --- | --- | --- | --- | --- | --- | --- | --- |
| 44 | 31.6 | 82 | 120 | 20 | – | – | – | CN[C@@]12CC[C@H](C(=O)O)[C@@H]1C2 [compound 2] |
| 41 | – | 38 | 40 | 11 | 27 | ~40 | 7 | N[C@@]12CC[C@H](C(=O)O)[C@@H]1C2 [bicyclo-GABA, (1S,2S,5R)-5-aminobicyclo[3.1.0]hexane-2-carboxylic acid] |
